This is an account of results in publication PMC9454457 (Journal of Nuclear Medicine, 2022).

Where two headings read alike, the source gives them in different places.

The term IC50 denotes the concentration at which inhibition is half-maximal. Low values mean greater potency in that assay, high ones weaker potency in that assay. As usually defined, the logD is lipophilicity at a set pH, counting ionised and neutral species. Low readings indicate lower lipophilicity, high ones higher lipophilicity.

Data set [1] concerns the target T1, GRPR (Homo sapiens, UniProt P30550).
T1 construct: endogenous in cells; host or cells: PC-3 cells
Also on record: method as in PMID 19671861, PMID 17262215. As to conditions: 1 h in vitro; cited from earlier work.

Data set [2] concerns the target T1, GRPR. In words: Competitive binding (IC50) on PC-3 cells vs 3-125I-D-Tyr6-MJ9. As to conditions: 2 h, room temperature, 3-125I-D-Tyr6-MJ9 0.2 nM/well, n = 3. Here is the method:
Competitive binding studies were performed on both PC-3 and T-47D cells (1.5 × 10^5 cells in 1 mL/well) via incubation at room temperature for 2 h using 3-^125I-D-Tyr^6-MJ9 (0.2 nM/well) as a radiolabeled reference (n = 3). Internalization studies of the ^177Lu-labeled conjugates (1.0 nM/well) were performed on PC-3 cells (1.5 × 10^5 cells in 1 mL/well) at 37°C for 1 h (n = 6). Data were corrected for nonspecific binding (competition by 10^−3 M ^natLu-RM2).
(§1) FIGURE 2. Preclinical data of ^nat/177Lu-RM2 (red), ^nat/177Lu-NeoBOMB1 (gray), ^nat/177Lu-AMTG (green), and ^nat/177Lu-AMTG2 (blue). (A) Affinity data on PC-3 and T-47D cells (1.5 × 10^5 cells/mL/well) using 3-^125I-D-Tyr^6-MJ9 (0.2 nM/well) as radiolabeled reference (2 h, room temperature, Hanks’ balanced salt solution plus 1% bovine serum albumin [v/v]). (B) GRPR-mediated internalization (0.25 pmol/well) on PC-3 cells as percentage of applied activity (incubation at 37°C for 1 h, Dulbecco modified Eagle medium/F-12 plus 5% bovine serum albumin [v/v], 1.5 × 10^5 cells/mL/well). Data were corrected for nonspecific binding (10^−3 M ^natLu-RM2). (C) Lipophilicity at pH 7.4 (logD7.4). (D) Metabolic stability in vitro in human plasma (left) (37°C, 72 ± 2 h; n = 4), and metabolic stability in vivo in murine plasma (middle) and murine urine (right) at 30 min after injection (n = 3). Data are expressed as mean ± SD.

Data set [3] in a line: In vitro metabolic stability in human plasma. Type of data set: in vitro ADME. As to conditions: 37°C, 72 ± 2 h, n = 4. The protocol:
Metabolic stability in vitro was determined through a procedure published by Linder et al. that was slightly modified ([16]). Immediately after labeling, 200 μL of human plasma were added and the mixture was incubated at 37°C for 72 ± 2 h. Proteins were precipitated by treatment with ice-cold EtOH (150 μL) and ice-cold MeCN (450 μL), followed by centrifugation (13,000 rpm, 20 min). The supernatants were decanted and further centrifuged (13,000 rpm, 10 min) using a Costar Spin-X (Corning) centrifuge tube filter (0.45 μm). The filtrated plasma samples were analyzed using radio–RP-HPLC.
as §1

Data set [4] in a line: In vivo metabolic stability in murine plasma and urine. Also on record: species or system CB17-SCID mice. The note with it: 30 min after injection, n = 3. Here is the method:
Approximately 30–40 MBq (1 nmol, 150 μL) of the ^177Lu-labeled compounds were injected into the tail vein of anesthetized CB17-SCID mice (n = 3). After euthanasia at 30 min after injection, blood and urine samples were collected. Blood proteins were precipitated by treatment with ice-cold MeCN (v/v = 1/1), followed by centrifugation (13,000 rpm, 20 min). The supernatants were decanted and further centrifuged (13,000 rpm, 10 min) using a Costar Spin-X centrifuge tube filter (0.45 μm). The filtrated plasma samples and the urine samples were analyzed using radio–RP-HPLC.
as §1

Data set [5] can be described thus: Biodistribution in PC-3 tumor-bearing CB17-SCID mice. The format is in vivo. The protocol: A detailed description of tumor inoculation is provided in the supplemental materials. Approximately 2–5 MBq (100 pmol, 150 μL) of the ^177Lu-labeled GRPR ligands were injected into the tail vein of anesthetized (2% isoflurane) PC-3 tumor–bearing mice (biodistribution, n = 4; imaging, n = 1).
For biodistribution studies, organs were removed, weighed, and measured in a γ-counter (Perkin Elmer) after euthanasia at 24 h after injection.
For all competition studies, 3.62 mg/kg (40 nmol) of ^natLu-RM2 (10^−3 M in phosphate-buffered saline) were coadministered.

The conditions of data set [6]: 30 min after injection; cited from earlier work.
Data set [7] in a line: Lipophilicity, n-octanol-PBS distribution coefficient (logD7.4). The format is physicochemical. The note with it: n-octanol/PBS pH 7.4. The protocol: Approximately 1 MBq of the ^177Lu-labeled compound was dissolved in 1 mL of phosphate-buffered saline (pH 7.4) and n-octanol (v/v = 1/1). After stirring for 3 min at room temperature in a vortex mixer and subsequent centrifugation at 9,000 rpm for 5 min (Biofuge 15; Heraeus Sepatech GmbH), 200-μL aliquots of both layers were measured separately in a γ-counter. The experiment was repeated at least 5 times.

T1 sequence (P30550 whole entry): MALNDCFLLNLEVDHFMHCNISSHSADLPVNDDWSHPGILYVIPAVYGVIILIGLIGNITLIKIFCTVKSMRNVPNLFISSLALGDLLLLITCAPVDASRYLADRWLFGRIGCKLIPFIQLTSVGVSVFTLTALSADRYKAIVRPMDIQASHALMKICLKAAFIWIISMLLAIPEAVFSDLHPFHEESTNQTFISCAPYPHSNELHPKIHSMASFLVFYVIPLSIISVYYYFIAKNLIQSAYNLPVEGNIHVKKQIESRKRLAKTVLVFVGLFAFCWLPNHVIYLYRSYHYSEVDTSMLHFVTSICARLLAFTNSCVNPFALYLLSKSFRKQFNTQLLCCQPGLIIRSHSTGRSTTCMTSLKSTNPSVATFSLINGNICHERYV

Take “DOTA-4-aminobenzoyl-Gln^7- Trp^8-Ala^9- Val^10- Gly^11- His^12- Leu^13-Met^14-NH2 [AMBA]”: the Internalization rates result on GRPR [1] is listed as “more than 25%”.

Molecule `CC(C)C[C@H](NC(=O)C[C@H](O)[C@H](CC(C)C)NC(=O)[C@H](Cc1c[nH]cn1)NC(=O)CNC(=O)[C@@H](NC(=O)[C@H](C)NC(=O)[C@H](Cc1c[nH]c2ccccc12)NC(=O)[C@H](CCC(N)=O)NC(=O)[C@@H](Cc1ccc(O)c(I)c1)NC(=O)CN1CCC(N)CC1)C(C)C)C(N)=O` [cold counterpart of 3-^125I-D-Tyr^6-MJ9] showed an IC50 at GRPR [2] of 1.3 ± 0.4 nM.

Consider `CC(C)C[C@H](NC(=O)C[C@H](O)[C@H](CC(C)C)NC(=O)[C@H](Cc1c[nH]cn1)NC(=O)CNC(=O)[C@@H](NC(=O)[C@H](C)NC(=O)[C@H](Cc1c[nH]c2ccccc12)NC(=O)[C@H](CCC(N)=O)NC(=O)[C@@H](Cc1ccccc1)NC(=O)CN1CCC(NC(=O)CN2CCN(CC(=O)O)CCN(CC(=O)O)CCN(CC(=O)O)CC2)CC1)C(C)C)C(N)=O` [^177Lu-RM2, metal not drawn, reference compound], for which the “Intact compound in human plasma in vitro” value in data set [3] is on record as 38.7% ± 9.3%. Besides, in data set [4], the “Intact tracer in murine plasma in vivo” value is listed as 11.4% ± 3.7%. In addition, in data set [4], the “Intact tracer in murine urine in vivo” value was 0.5% ± 0.1%. In addition, the tissue uptake at 24 h in data set [5] (CB17-SCID, mouse, adrenal, intravenous, 100 pmol, total radioactivity, 24 h after injection, 100 pmol, n = 4; read-out: Biodistribution, Adrenal) amounted to 0.8 ± 0.16 %ID/g; in data set [5] (CB17-SCID, mouse, blood, intravenous, 100 pmol, total radioactivity, 24 h after injection, 100 pmol, n = 4; read-out: Biodistribution, Blood), 0.012 ± 0.001 %ID/g; in data set [5] (CB17-SCID, mouse, bone, intravenous, 100 pmol, total radioactivity, 24 h after injection, 100 pmol, n = 4; read-out: Biodistribution, Bone), 1.31 ± 0.56 %ID/g; in data set [5] (CB17-SCID, mouse, kidney, intravenous, 100 pmol, total radioactivity, 24 h after injection, 100 pmol, n = 4; read-out: Biodistribution, Kidney), 1.79 ± 0.05 %ID/g; in data set [5] (CB17-SCID, mouse, liver, intravenous, 100 pmol, total radioactivity, 24 h after injection, 100 pmol, n = 4; read-out: Biodistribution, Liver) it was 0.45 ± 0.03 %ID/g; in data set [5] (CB17-SCID, mouse, muscle, intravenous, 100 pmol, total radioactivity, 24 h after injection, 100 pmol, n = 4; read-out: Biodistribution, Muscle) it was 0.011 ± 0.011 %ID/g. Moreover, the tissue uptake at 24 h came to 0.43 ± 0.06 %ID/g in data set [5] (CB17-SCID, mouse, pancreas, intravenous, 100 pmol, total radioactivity, 24 h after injection, 100 pmol, n = 4; read-out: Biodistribution, Pancreas) and 8.45 ± 0.19 %ID/g in data set [5] (CB17-SCID, mouse, tumor (PC-3), intravenous, 100 pmol, total radioactivity, PC-3 tumor, 24 h after injection, 100 pmol, n = 4; read-out: Biodistribution, Tumor).

Regarding `CC(C)CC(CC(C)C)NC(=O)[C@H](Cc1cnc[nH]1)NC(=O)CNC(=O)[C@@H](NC(=O)[C@H](C)NC(=O)[C@H](Cc1c[nH]c2ccccc12)NC(=O)[C@H](CCC(N)=O)NC(=O)[C@@H](Cc1ccccc1)NC(=O)COCC(=O)Nc1ccc(CNC(=O)CN2CCN(CC(=O)O)CCN(CC(=O)O)CCN(CC(=O)O)CC2)cc1)C(C)C` [^177Lu-NeoBOMB1, metal not drawn, reference compound], in data set [3], the “Intact compound in human plasma in vitro” value is 61.9% ± 2.1%. The “Fraction of intact tracer in murine blood” value in data set [6] is reported as 90%. Moreover, in data set [4], the “Intact tracer in murine plasma in vivo” value is listed as 75.9% ± 0.6%. Also, in data set [4], the “Intact tracer in murine urine in vivo” value is listed as 3.9% ± 1.3%. Moreover, the logD in data set [7] was -0.57 ± 0.03. Further, the tissue uptake at 24 h in data set [5] (CB17-SCID, mouse, blood, intravenous, total radioactivity; 24 h after injection, 100 pmol, n = 4; read-out: Biodistribution, Blood) was determined as 0.057 ± 0.027 %ID/g; in data set [5] (CB17-SCID, mouse, heart, intravenous, total radioactivity; 24 h after injection, 100 pmol, n = 4; read-out: Biodistribution, Heart), 0.1 ± 0.03 %ID/g; in data set [5] (CB17-SCID, mouse, intestine, intravenous, total radioactivity; 24 h after injection, 100 pmol, n = 4; read-out: Biodistribution, Intestine), 0.85 ± 0.05 %ID/g; in data set [5] (CB17-SCID, mouse, kidney, intravenous, total radioactivity; 24 h after injection, 100 pmol, n = 4; read-out: Biodistribution, Kidney), 1.9 ± 0.72 %ID/g; in data set [5] (CB17-SCID, mouse, liver, intravenous, total radioactivity; 24 h after injection, 100 pmol, n = 4; read-out: Biodistribution, Liver), 1.6 ± 0.62 %ID/g; in data set [5] (CB17-SCID, mouse, lung, intravenous, total radioactivity; 24 h after injection, 100 pmol, n = 4; read-out: Biodistribution, Lung), 0.43 %ID/g. Further, the tissue uptake at 24 h was determined as 0.01 ± 0.005 %ID/g in data set [5] (CB17-SCID, mouse, muscle, intravenous, total radioactivity; 24 h after injection, 100 pmol, n = 4; read-out: Biodistribution, Muscle); 8.48 ± 0.92 %ID/g in data set [5] (CB17-SCID, mouse, pancreas, intravenous, total radioactivity; 24 h after injection, 100 pmol, n = 4; read-out: Biodistribution, Pancreas); 1.94 ± 0.97 %ID/g in data set [5] (CB17-SCID, mouse, spleen, intravenous, total radioactivity; 24 h after injection, 100 pmol, n = 4; read-out: Biodistribution, Spleen); 1.29 ± 0.12 %ID/g in data set [5] (CB17-SCID, mouse, stomach, intravenous, total radioactivity; 24 h after injection, 100 pmol, n = 4; read-out: Biodistribution, Stomach); 7.23 ± 0.91 %ID/g in data set [5] (CB17-SCID, mouse, tumor (PC-3), intravenous, total radioactivity; PC-3 tumor, 24 h after injection, 100 pmol, n = 4; read-out: Biodistribution, Tumor).
